Source: US20070166547A1, “Use of a layer consisting of hydrophobic linear, or two-dimensional polycyclic aromatics as a barrier layer or an encapsulation and electric components constructed with a layer of this type and comprising organic polymers” (priority 2003, published 2007)

Tests used:
[1] = system: embyronic fibroblasts of mouse NIH-3T3; test: Endocellular pHi of fibroblasts by microspectrofluorimetry (FDA, BCECF-AM); format: cell-based; conditions: 10 mkM in medium with serum
Method: The effect of the compounds according to the invention on the endocellular pH, embyronic fibroblasts of mouse NIH-3T3 supplied by the All-Russian Collection of Cellular Cultures of the Institute of Cytology of the Russian Academy of Sciences St. Petersburg was investigated. The cells were grown in the DMEM (Sigma) medium containing 2.2 g/l of sodium bicarbonate with addition of 80.0 mkg/ml of gentamicin and 10.0% embryonal veal serum at a temperature of 37° C. in an atmosphere containing 5.0% of carbon dioxide. For these experiments use was also made of a medium buffer with 5.0 mM of HEPES and 15.0 mM of sodium bicarbonate without serum or with addition of 5.0% serum. The cells were calculated with the help of a hemocytometer. A share of the dead cells was determined by colouring trypan blue.
The measurements of the endocellular pHi were carried out with the help of colorants FDA (Sigma) and BCECF-AM (Calbiochem) on a microspectrofluorimeter by a standard technique (Koshevoy Yu. V., Akatov V. S., Grobova M. E. Microspectrofluorimeter for measuring endocellular pH (micro pH)”. Devices and equipment for studies in the field of physical-and-chemical biology and biotechnology. Pushchino, 1990. P. 8-14).
The cells at a temperature of 37° C. were colored within 5 minutes with 5.0 mkM PDA that before the colouring was prepared from a 10.0 mM solution in acetone by dilution for 30 minutes in a phosphatic buffer to 0.1 mM or 2.0 mkM 1.0 mM solution BCECF-AM in DMSO.
The two-wave method of determining pHi was used based on the ratio intensities of fluorescence of the cells on two wavelengths (Akatov V. S. et all), “Endocellular pH and substrate dependence of proliferation of fibroblasts of Chinese hamster, Cytology, 1991, 33 (7), p. 86-94). The fluorescence was excited by light at λ=490 nm, the emission was recorded simultaneously with two photomultipliers on wavelengths λ=535 nm and λ=570 nm. The K-ratio of the fluorescence on two wavelengths was determined with a deduction of the background fluorescence of the medium near the investigated cells for 40-60 individual cells, which are then averaged taking into account the measurement error. A thermostatically controlled table was used that allowed measurements to be conducted at a temperature of 37° C. An account was taken for the photodynamic damage of the pigmented cells during-long-time continuous illumination by excited light. The readings were taken from a section of the preparation exposed to light for not more than 5 minutes.
The calibration curves for determining the absolute pHi values by magnitude K were constructed using the Thomas technique (Thomas J. A., Bushbaum R. N., Zimniak A. w Racker E. “Intracellular pH measurements in Ehrlich ascites tumor cells utilizing spectroscopic probe generated in situ”, Biochemistry, 1979, v. 18, p. 2210-2218), for which case the pigmented cells treated for 5-10 minutes with carboxyacidic nigericyn (Calbiochem) at a concentration of 5-10 mkg/ml was placed in a solution with a high content of potassium—130 mM KCl, 1.0 mM MgCl2, 20.0 mM of HEPES) and with pH values from 6.2 to 7.6. The K values were measured in the media with different pH assuming that pHi of the cells equals to the pH of the medium due to the action of nigericyn, which exchanges potassium ions for protons and at a high content of potassium in the medium counterbalances the pH of the medium and cells. Calibration curves were used based on the fluorescence of same medium with addition of 5.0 mkM of fluorescence or BCECF were used to the control the stability of the of the instrument readings.
The correctness of the technique was confirmed in the experiments on measurements of pH values of cells treated with protonofor monencine raising pH of the cells due to replacement of sodium ions by protons, and by determining the dependence of the change of pHi on the change of the pH of the medium. […]

[2] = system: embyronic fibroblasts of mouse NIH-3T3; conditions: 1-5 mkM; 15-20 minutes; cells of mice NSO and NIH-3T3; cited from earlier work

## CC[C@@]1([C@@H]2O[C@@H]([C@H]3O[C@@](O)(CO)[C@H](C)C[C@@H]3C)C[C@@H]2C)CC[C@H]([C@]2(C)CC[C@]3(C[C@H](O)[C@@H](C)[C@@H]([C@@H](C)[C@@H](OC)[C@H](C)C(=O)O)O3)O2)O1 [monensine, reference compound]
[1]
  rise of pHi: 0.12 pH unit
[2]
  increase of pHi: 0.2 unit
